This note sets out measurements from PubChem BioAssay (NCI).

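Grown in 96-well plates, cells were treated for 48 hours with each compound at five concentrations. Insufficient inhibition: endpoint recorded as highest concentration tested. TGI: total growth inhibition.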

Common to all, as to assay: growth of human tumour cells (NCI), 48 h
The test system of assay [1] is UO-31 renal.
For assay [2], the system named is NCI/ADR-RES ovarian.
Assay [3] concerns HL-60(TB) leukemia.
For assay [4], the system named is HT29 colon.
Assay [5] concerns DU-145 prostate.
The test system of assay [6] is CCRF-CEM leukemia.
Assay [7] deals with HOP-92 NSCLC.
The test system of assay [8] is HOP-62 NSCLC.
The subject of assay [9] is NCI-H460 lung.
Assay [10] deals with MDA-N.
Assay [11] deals with BT-549 breast.
Assay [12] concerns A549 NSCLC.
Assay [13] relates to SNB-19 CNS.
Assay [14] relates to SR leukemia.
In assay [15] the test system is RPMI-8226 leukemia.
Assay [16] has as its system MOLT-4 leukemia.
Assay [17] concerns SF-295 CNS.
Assay [18] deals with OVCAR-3 ovarian.
The test system of assay [19] is SN12C renal.
Assay [20] deals with SNB-75 CNS.

Take `O=S1(=O)OCCOS(=O)(=O)C1S(=O)(=O)c1ccc2ccccc2c1`: the TGI in assay [1], in assay [2], in assay [3], in assay [4], in [5] and in [6] was above 100 µM each time. The TGI in assay [7], in assay [8], in assay [9], in assay [10], in [11] and in assay [12] was above 100 µM throughout. For the same compound, the TGI in [13], in assay [14], in assay [15], in assay [16], in [17] and in [18] was above 100 µM throughout. In assay [19], the TGI is above 100 µM.

Regarding `C[C@@]1(O)C[C@@H](N2C(=O)O[C@@H](c3ccccc3)[C@H]2c2ccccc2)[C@@H]1COCc1ccccc1`, the TGI was 67.8 µM in assay [1]; 64.8 µM in [2]; 23.5 µM in [3]; 50.6 µM in assay [4]; above 100 µM in assay [5]; 89 µM in [7]. In addition, the TGI in assay [8] was 75.3 µM; in assay [9], 68.1 µM; in assay [10], 38.5 µM; in assay [11], 51.2 µM; in [12], 97.9 µM; in [13], above 100 µM. Also, the TGI in assay [14] turned out to be 52.7 µM; in assay [15], 68.8 µM; in [16], 26.4 µM; in [17], 41.3 µM; in [18] it was 46.1 µM; in [19], 38.5 µM.

Turning to `CC(=O)OCCCC(NC(=O)OC(C)(C)C)C(=O)NC(CCCOC(C)=O)C(=O)NC(Cc1ccc([N+](=O)[O-])cc1)C(=O)NCC(=O)OCc1ccccc1` (stereo not drawn), the TGI in [1] was 30 µM; in [2] it was 41.8 µM; in assay [3] it was 19.5 µM; in assay [4], 31.9 µM; in assay [5], 32.7 µM; in assay [6], above 100 µM. Moreover, the TGI in [7] was 42.1 µM; in assay [8] it was 34.8 µM; in assay [9], 29.5 µM; in assay [10] it was 28.6 µM; in assay [11], 32.6 µM; in assay [12], 38.8 µM. Moreover, the TGI in assay [13] was 32.9 µM; in assay [14] it was 44.6 µM; in assay [15], 44.6 µM; in assay [16], above 100 µM; in assay [17], 24.4 µM; in assay [18], 30.1 µM. For the same compound, the TGI in [19] was 31.6 µM.

For the compound `COC(=O)C1CC2CCC1(O[Si](C(C)C)(C(C)C)C(C)C)C(O)C2` (stereo not drawn), the TGI in assay [1] is 30.2 µM; in assay [2] it was above 100 µM; in assay [3], above 100 µM; in assay [4] it was 30.2 µM; in [5], 34.9 µM; in assay [6] it was above 100 µM. Moreover, the TGI in assay [8] was 44.1 µM; in [9], above 100 µM; in assay [10] it was 57.4 µM; in assay [11] it was 79.3 µM; in assay [12], 33.4 µM; in assay [13], 44.2 µM. Further, the TGI in assay [14] is 26.6 µM; in assay [20] it was above 100 µM; in assay [15] it was 40.7 µM; in assay [16], 30.1 µM; in [17] it was 47.2 µM; in [18] it was 39.3 µM. In assay [19], this compound displayed a TGI of 34.5 µM.

For `O=C(NNC(=S)Nc1ccccc1)c1cc(-c2ccccc2)nc2ccccc12`, the TGI was 31 µM in assay [1]; 52.1 µM in assay [2]; above 100 µM in assay [4]; 39.1 µM in assay [5]; 29.9 µM in [6]; 37.7 µM in [7]. The TGI in assay [8] was 33.3 µM; in assay [9] it was above 100 µM; in assay [10], 37.9 µM; in assay [11], 49.6 µM; in assay [12], 41.2 µM; in [13] it was above 100 µM. The TGI turned out to be 32.9 µM in assay [14]; 71.3 µM in assay [20]; 44.9 µM in [15]; 32.2 µM in [16]; 27.4 µM in [17]; 24.4 µM in [18]. The compound also came in with a TGI in assay [19] of 40.6 µM.

Take `Cc1ccc(Cc2n[nH]c(=O)n2Nc2ccccc2)cc1`: the TGI in [1], in assay [2], in assay [3], in assay [4], in assay [5] and in assay [6] was above 100 µM each time. Moreover, the TGI in assay [7], in assay [8], in assay [9], in assay [10], in assay [11] and in assay [12] was above 100 µM throughout. Also, the TGI in [13], in assay [14], in assay [15], in [16], in assay [17] and in assay [18] was above 100 µM throughout. The TGI in assay [19] was above 100 µM.

As to `COC(=O)C1=C(C)C(=O)[C@]23C(CCCC[C@H]12)C(=O)[C@H](C(=O)OC)C3C` (stereo partly drawn), the TGI in [1], in assay [2], in assay [3], in [4], in [5] and in assay [6] was above 100 µM each time. Further, the TGI in assay [7], in [8], in assay [9], in assay [10], in assay [11] and in assay [12] was above 100 µM in each case. For the same compound, the TGI in assay [13], in assay [14], in assay [16], in assay [17], in assay [18] and in assay [19] was above 100 µM each time.

As for `Cc1c(C)c(C)c(-n2c(=O)n(C)c(=O)n2-n2c(=O)n(C)c(=O)n2-c2c(C)c(C)c(C)c(C)c2C)c(C)c1C`, the TGI in assay [1] is above 100 µM; in assay [2], above 100 µM; in assay [3] it was 68.7 µM; in [4] it was above 100 µM; in [5], above 100 µM; in assay [7], above 100 µM. The TGI in assay [9], in assay [10], in [11], in assay [12], in [13] and in assay [14] was above 100 µM each time. The TGI in [20], in [15], in [16], in assay [18] and in assay [19] was above 100 µM each time.

Regarding `COC(=O)/C=C\COCC1C2CCC(=O)C21` (stereo not drawn), the TGI in assay [1] was above 25 µM; in assay [2] it was above 25 µM; in assay [4] it was above 25 µM; in assay [5] it was above 25 µM; in assay [6], 16.2 µM; in assay [7] it was 10.6 µM. Also, the TGI in [8] is above 25 µM; in [9] it was 24.3 µM; in assay [10], above 25 µM; in [11] it was above 25 µM; in [12] it was above 25 µM; in assay [13], above 25 µM. In addition, the TGI in assay [14] is above 25 µM; in [20], above 25 µM; in assay [15], above 25 µM; in assay [16] it was 20.7 µM; in assay [17], above 25 µM; in assay [18], above 25 µM. In addition, the TGI in assay [19] was above 25 µM.

`CN1CN(c2ccccc2)C2(CCN(Cc3csc4ccccc34)CC2)C1=O`: the TGI in assay [1] is 12.3 µM; in assay [2], 61.1 µM; in assay [3], 32.8 µM; in [4], 36.5 µM; in [5], above 100 µM; in assay [6], above 100 µM. The TGI is 87.5 µM in assay [8]; 32.2 µM in [10]; 20.5 µM in assay [11]; 74 µM in assay [12]; above 100 µM in assay [13]; 23.2 µM in assay [14]. The TGI was above 100 µM in [20]; 7.5 µM in [15]; 29.6 µM in [16]; 26.6 µM in assay [17]; 27.4 µM in assay [18]; 30.6 µM in [19].

Turning to `Fc1ccc(Oc2nc3ccc(C(F)(F)F)cc3nc2-c2ccccc2)cc1`, the TGI in assay [1] is above 100 µM; in assay [2], above 100 µM; in assay [3], above 100 µM; in assay [4], above 100 µM; in assay [5], above 100 µM; in assay [6], above 10 µM. Further, the TGI in assay [8], in assay [9], in assay [10], in assay [11], in assay [12] and in [13] was above 100 µM each time. In addition, the TGI in assay [14] is 70.9 µM; in assay [20] it was above 100 µM; in [16], above 100 µM; in assay [17], above 100 µM; in assay [18], above 100 µM; in assay [19], above 100 µM.
